In patent publication US6358885B1, “Substituted phenylheterocyclic herbicides” (Mississippi State University, priority 1992, dated 2002):

Columns and labels:
Test in all cases: Test B preemergence/postemergence greenhouse plant response rating 0 to 10
barley = type: in vivo, Hordeum vulgare; conditions: for Plant response rating (0 to 10 scale), Barley: Rate 100 g/ha; for Plant response rating, Barley: Rate 400 g/ha, 0 to 10 scale
Description: (§1) Seeds of barley (Hordeum vulgare), barnyardgrass (Echinochloa crus-galli), bedstraw (Galium aparine), blackgrass (Alopecurus myosuroides), […] (Bromus secalinus), chickweed (Stellaria media), cocklebur (Xanthium pensylvanicum), corn (Zea mays), cotton (Gossypium hirsutum), crabgrass (Digitaria spp.), giant foxtail (Setaria faberii), lambsquarters (Chenopodium album), morningglory (Ipomoea hederacea), rape (Brassica napus), rice (Oryza sativa), sorghum (Sorghum bicolor), soybean (Glycine max), sugar beet (Beta vulgaris), velvetleaf (Abutilon theophrasti), wheat (Triticum aestivum), wild buckwheat (Polygonum convolvulus), and wild oat (Avena fatua) and purple nutsedge. (Cyperus rotundus) tubers were planted and treated preemergence with test chemicals dissolved in a non-phytotoxic solvent. At the same time, these crop and weed species were also treated with postemergence applications of test chemicals. Plants ranged in height from two to eighteen cm (one to four leaf stage) for postemergence treatments. Treated plants and controls were maintained in a greenhouse for twelve to sixteen days, after which all species were compared to controls and visually evaluated. […] A dash (-) response means no test result.

barnyardgrass = type: in vivo, Echinochloa crus-galli; conditions: for Plant response rating (0 to 10 scale), Barnyardgrass: Rate 100 g/ha; for Plant response rating, Barnyardgrass: Rate 400 g/ha, 0 to 10 scale
Description: as §1

bedstraw = type: in vivo, Galium aparine; conditions: for Plant response rating (0 to 10 scale), Bedstraw: Rate 100 g/ha; for Plant response rating, Bedstraw: Rate 400 g/ha, 0 to 10 scale
Description: as §1

blackgrass = type: in vivo, Alopecurus myosuroides; conditions: for Plant response rating (0 to 10 scale), Blackgrass: Rate 100 g/ha; for Plant response rating, Blackgrass: Rate 400 g/ha, 0 to 10 scale
Description: as §1

cheatgrass = type: in vivo, Bromus secalinus; conditions: for Plant response rating (0 to 10 scale), Cheatgrass: Rate 100 g/ha; for Plant response rating, Cheatgrass: Rate 400 g/ha, 0 to 10 scale
Description: as §1

chickweed = type: in vivo, Stellaria media; conditions: for Plant response rating (0 to 10 scale), Chickweed: Rate 100 g/ha; for Plant response rating, Chickweed: Rate 400 g/ha, 0 to 10 scale
Description: as §1

cocklebur = type: in vivo, Xanthium pensylvanicum; conditions: for Plant response rating (0 to 10 scale), Cocklebur: Rate 100 g/ha; for Plant response rating, Cocklebur: Rate 400 g/ha, 0 to 10 scale
Description: as §1

corn = type: in vivo, Zea mays; conditions: for Plant response rating (0 to 10 scale), Corn: Rate 100 g/ha; for Plant response rating, Corn: Rate 400 g/ha, 0 to 10 scale
Description: as §1

cotton = type: in vivo, Gossypium hirsutum; conditions: for Plant response rating (0 to 10 scale), Cotton: Rate 100 g/ha; for Plant response rating, Cotton: Rate 400 g/ha, 0 to 10 scale
Description: as §1

crabgrass = type: in vivo, Digitaria spp.; conditions: for Plant response rating (0 to 10 scale), Crabgrass: Rate 100 g/ha; for Plant response rating, Crabgrass: Rate 400 g/ha, 0 to 10 scale
Description: as §1

giant foxtail = type: in vivo, Setaria faberii; conditions: for Plant response rating (0 to 10 scale), Giant foxtail: Rate 100 g/ha; for Plant response rating, Giant foxtail: Rate 400 g/ha, 0 to 10 scale
Description: as §1

lambsquarters = type: in vivo, Chenopodium album; conditions: for Plant response rating (0 to 10 scale), Lambsquarter: Rate 100 g/ha; for Plant response rating, Lambsquarter: Rate 400 g/ha, 0 to 10 scale
Description: as §1

morningglory = type: in vivo, Ipomoea hederacea; conditions: for Plant response rating (0 to 10 scale), Morningglory: Rate 100 g/ha; for Plant response rating, Morningglory: Rate 400 g/ha, 0 to 10 scale
Description: as §1

rape = type: in vivo, Brassica napus; conditions: for Plant response rating (0 to 10 scale), Rape: Rate 100 g/ha; for Plant response rating, Rape: Rate 400 g/ha, 0 to 10 scale
Description: as §1

rice = type: in vivo, Oryza sativa; conditions: for Plant response rating (0 to 10 scale), Rice: Rate 100 g/ha; for Plant response rating, Rice: Rate 400 g/ha, 0 to 10 scale
Description: as §1

sorghum = type: in vivo, Sorghum bicolor; conditions: for Plant response rating (0 to 10 scale), Sorghum: Rate 100 g/ha; for Plant response rating, Sorghum: Rate 400 g/ha, 0 to 10 scale
Description: as §1

soybean = type: in vivo, Glycine max; conditions: for Plant response rating (0 to 10 scale), Soybean: Rate 100 g/ha; for Plant response rating, Soybean: Rate 400 g/ha, 0 to 10 scale
Description: as §1

sugar beet = type: in vivo, Beta vulgaris; conditions: for Plant response rating (0 to 10 scale), Sugar beet: Rate 100 g/ha; for Plant response rating, Sugar beet: Rate 400 g/ha, 0 to 10 scale
Description: as §1

velvetleaf = type: in vivo, Abutilon theophrasti; conditions: for Plant response rating (0 to 10 scale), Velvetleaf: Rate 100 g/ha; for Plant response rating, Velvetleaf: Rate 400 g/ha, 0 to 10 scale
Description: as §1

wheat = type: in vivo, Triticum aestivum; conditions: for Plant response rating (0 to 10 scale), Wheat: Rate 100 g/ha; for Plant response rating, Wheat: Rate 400 g/ha, 0 to 10 scale
Description: as §1

wild buckwheat = type: in vivo, Polygonum convolvulus; conditions: for Plant response rating (0 to 10 scale), Wild buckwheat: Rate 100 g/ha; for Plant response rating, Wild buckwheat: Rate 400 g/ha, 0 to 10 scale
Description: as §1

wild oat = type: in vivo, Avena fatua; conditions: for Plant response rating (0 to 10 scale), Wild oat: Rate 100 g/ha; for Plant response rating, Wild oat: Rate 400 g/ha, 0 to 10 scale
Description: as §1

purple nutsedge = type: in vivo, Cyperus rotundus; conditions: for Plant response rating (0 to 10 scale), Nutsedge: Rate 100 g/ha; for Plant response rating, Nutsedge: Rate 400 g/ha, 0 to 10 scale
Description: as §1

For `Fc1ccc(-c2nc3n(c2Br)CCCC3)c(F)c1` [Compound 7], the “Plant response rating (0 to 10 scale), Barley” value (barley; POSTEMERGENCE) was 2, the “Plant response rating, Barley” value (barley; POSTEMERGENCE) was 3 and the “Plant response rating (0 to 10 scale), Barley” value (barley; PREEMERGENCE) was 0. The “Plant response rating, Barley” value (barley; PREEMERGENCE) was 0, the “Plant response rating (0 to 10 scale), Barnyardgrass” value (barnyardgrass; POSTEMERGENCE) was 4 and the “Plant response rating, Barnyardgrass” value (barnyardgrass; POSTEMERGENCE) was 6. The “Plant response rating (0 to 10 scale), Barnyardgrass” value (barnyardgrass; PREEMERGENCE) was 1, the “Plant response rating, Barnyardgrass” value (barnyardgrass; PREEMERGENCE) was 2 and the “Plant response rating (0 to 10 scale), Bedstraw” value (bedstraw; POSTEMERGENCE) was 4. For the same compound, the “Plant response rating, Bedstraw” value (bedstraw; POSTEMERGENCE) was 6, the “Plant response rating (0 to 10 scale), Bedstraw” value (bedstraw; PREEMERGENCE) was 0 and the “Plant response rating, Bedstraw” value (bedstraw; PREEMERGENCE) was 2. For the same compound, the “Plant response rating (0 to 10 scale), Blackgrass” value (blackgrass; POSTEMERGENCE) was 3, the “Plant response rating, Blackgrass” value (blackgrass; POSTEMERGENCE) was 4 and the “Plant response rating (0 to 10 scale), Blackgrass” value (blackgrass; PREEMERGENCE) was 0. The “Plant response rating, Blackgrass” value (blackgrass; PREEMERGENCE) was 2, the “Plant response rating (0 to 10 scale), Cheatgrass” value (cheatgrass; POSTEMERGENCE) was 3 and the “Plant response rating, Cheatgrass” value (cheatgrass; POSTEMERGENCE) was 4. The “Plant response rating (0 to 10 scale), Cheatgrass” value (cheatgrass; PREEMERGENCE) was 0, the “Plant response rating, Cheatgrass” value (cheatgrass; PREEMERGENCE) was 0 and the “Plant response rating (0 to 10 scale), Chickweed” value (chickweed; POSTEMERGENCE) was 3. The “Plant response rating, Chickweed” value (chickweed; POSTEMERGENCE) was 3, the “Plant response rating (0 to 10 scale), Chickweed” value (chickweed; PREEMERGENCE) was 0 and the “Plant response rating, Chickweed” value (chickweed; PREEMERGENCE) was 3. The “Plant response rating (0 to 10 scale), Cocklebur” value (cocklebur; POSTEMERGENCE) was 7, the “Plant response rating, Cocklebur” value (cocklebur; POSTEMERGENCE) was 8 and the “Plant response rating (0 to 10 scale), Cocklebur” value (cocklebur; PREEMERGENCE) was 0. The “Plant response rating, Cocklebur” value (cocklebur; PREEMERGENCE) was 0, the “Plant response rating (0 to 10 scale), Corn” value (corn; POSTEMERGENCE) was 3 and the “Plant response rating, Corn” value (corn; POSTEMERGENCE) was 4. For the same compound, the “Plant response rating (0 to 10 scale), Corn” value (corn; PREEMERGENCE) was 0, the “Plant response rating, Corn” value (corn; PREEMERGENCE) was 0 and the “Plant response rating (0 to 10 scale), Cotton” value (cotton; POSTEMERGENCE) was 9. The “Plant response rating, Cotton” value (cotton; POSTEMERGENCE) was 10, the “Plant response rating (0 to 10 scale), Cotton” value (cotton; PREEMERGENCE) was 0 and the “Plant response rating, Cotton” value (cotton; PREEMERGENCE) was 0. The “Plant response rating (0 to 10 scale), Crabgrass” value (crabgrass; POSTEMERGENCE) was 4, the “Plant response rating, Crabgrass” value (crabgrass; POSTEMERGENCE) was 4 and the “Plant response rating (0 to 10 scale), Crabgrass” value (crabgrass; PREEMERGENCE) was 2. For the same compound, the “Plant response rating, Crabgrass” value (crabgrass; PREEMERGENCE) was 6, the “Plant response rating (0 to 10 scale), Giant foxtail” value (giant foxtail; POSTEMERGENCE) was 5 and the “Plant response rating, Giant foxtail” value (giant foxtail; POSTEMERGENCE) was 5. For the same compound, the “Plant response rating (0 to 10 scale), Giant foxtail” value (giant foxtail; PREEMERGENCE) was 3, the “Plant response rating, Giant foxtail” value (giant foxtail; PREEMERGENCE) was 4 and the “Plant response rating (0 to 10 scale), Lambsquarter” value (lambsquarters; POSTEMERGENCE) was 8. For the same compound, the “Plant response rating, Lambsquarter” value (lambsquarters; POSTEMERGENCE) was 9, the “Plant response rating (0 to 10 scale), Lambsquarter” value (lambsquarters; PREEMERGENCE) was 0 and the “Plant response rating, Lambsquarter” value (lambsquarters; PREEMERGENCE) was 6. For the same compound, the “Plant response rating (0 to 10 scale), Morningglory” value (morningglory; POSTEMERGENCE) was 8, the “Plant response rating, Morningglory” value (morningglory; POSTEMERGENCE) was 9 and the “Plant response rating (0 to 10 scale), Morningglory” value (morningglory; PREEMERGENCE) was 0. The “Plant response rating, Morningglory” value (morningglory; PREEMERGENCE) was 0, the “Plant response rating (0 to 10 scale), Rape” value (rape; POSTEMERGENCE) was 5 and the “Plant response rating, Rape” value (rape; POSTEMERGENCE) was 7. The “Plant response rating (0 to 10 scale), Rape” value (rape; PREEMERGENCE) was 0, the “Plant response rating, Rape” value (rape; PREEMERGENCE) was 0 and the “Plant response rating (0 to 10 scale), Rice” value (rice; POSTEMERGENCE) was 5. For the same compound, the “Plant response rating, Rice” value (rice; POSTEMERGENCE) was 5, the “Plant response rating (0 to 10 scale), Rice” value (rice; PREEMERGENCE) was 0 and the “Plant response rating, Rice” value (rice; PREEMERGENCE) was 0. For the same compound, the “Plant response rating (0 to 10 scale), Sorghum” value (sorghum; POSTEMERGENCE) was 5, the “Plant response rating, Sorghum” value (sorghum; POSTEMERGENCE) was 6 and the “Plant response rating (0 to 10 scale), Sorghum” value (sorghum; PREEMERGENCE) was 0. The “Plant response rating, Sorghum” value (sorghum; PREEMERGENCE) was 0, the “Plant response rating (0 to 10 scale), Soybean” value (soybean; POSTEMERGENCE) was 8 and the “Plant response rating, Soybean” value (soybean; POSTEMERGENCE) was 8. For the same compound, the “Plant response rating (0 to 10 scale), Soybean” value (soybean; PREEMERGENCE) was 0, the “Plant response rating, Soybean” value (soybean; PREEMERGENCE) was 0 and the “Plant response rating (0 to 10 scale), Sugar beet” value (sugar beet; POSTEMERGENCE) was 9. The “Plant response rating, Sugar beet” value (sugar beet; POSTEMERGENCE) was 10, the “Plant response rating (0 to 10 scale), Sugar beet” value (sugar beet; PREEMERGENCE) was 0 and the “Plant response rating, Sugar beet” value (sugar beet; PREEMERGENCE) was 0. For the same compound, the “Plant response rating (0 to 10 scale), Velvetleaf” value (velvetleaf; POSTEMERGENCE) was 7, the “Plant response rating, Velvetleaf” value (velvetleaf; POSTEMERGENCE) was 9 and the “Plant response rating (0 to 10 scale), Velvetleaf” value (velvetleaf; PREEMERGENCE) was 1. The “Plant response rating, Velvetleaf” value (velvetleaf; PREEMERGENCE) was 5, the “Plant response rating (0 to 10 scale), Wheat” value (wheat; POSTEMERGENCE) was 3 and the “Plant response rating, Wheat” value (wheat; POSTEMERGENCE) was 5. The “Plant response rating (0 to 10 scale), Wheat” value (wheat; PREEMERGENCE) was 0, the “Plant response rating, Wheat” value (wheat; PREEMERGENCE) was 0 and the “Plant response rating (0 to 10 scale), Wild buckwheat” value (wild buckwheat; POSTEMERGENCE) was 9. The “Plant response rating, Wild buckwheat” value (wild buckwheat; POSTEMERGENCE) was 10, the “Plant response rating (0 to 10 scale), Wild buckwheat” value (wild buckwheat; PREEMERGENCE) was 0 and the “Plant response rating, Wild buckwheat” value (wild buckwheat; PREEMERGENCE) was 3. For the same compound, the “Plant response rating (0 to 10 scale), Wild oat” value (wild oat; POSTEMERGENCE) was 2, the “Plant response rating, Wild oat” value (wild oat; POSTEMERGENCE) was 3 and the “Plant response rating (0 to 10 scale), Wild oat” value (wild oat; PREEMERGENCE) was 0. The “Plant response rating, Wild oat” value (wild oat; PREEMERGENCE) was 0, the “Plant response rating (0 to 10 scale), Nutsedge” value (purple nutsedge; POSTEMERGENCE) was 1 and the “Plant response rating, Nutsedge” value (purple nutsedge; POSTEMERGENCE) was 2. For the same compound, the “Plant response rating (0 to 10 scale), Nutsedge” value (purple nutsedge; PREEMERGENCE) was 0 and the “Plant response rating, Nutsedge” value (purple nutsedge; PREEMERGENCE) was 2.
